Patent US20100292316A1, “IMPROVED THERAPEUTIC METHODS AND COMPOSITIONS COMPRISING CHROMAN RING COMPOUNDS” (Research Development Foundation, priority 2007, published 2010)

Key:
Akt = assay: Western blot of phosphorylated Akt (Ser 473) and total Akt in prostate cancer cells; assay type: cell-based, human
Text: Previous studies have shown that α-TEA is an effective inducer of apoptosis in human prostate cancer cells (Anderson et al., 2004). Dose- and time-dependent pro-apoptotic effects of α-TEA in prostate cancer cells are mediated by Fas/FADD/caspase-8/tBid and Fas/Daxx/Ask1/JNK1/2/Bax, leading to activation of caspases-9 and -3. Thus, the Akt inhibiting activity of α-TEA was investigated in prostate cancer cells. Since phosphorylation of Akt at Ser 473 is required for its full activation (Cheng et al., 2005), we examined the phosphorylation status of Akt using an antibody that specifically recognizes Akt phosphorylated at Ser 473 in all three Akt isoforms (Upstate Cell Signaling Solutions (Charlottesville, Va.)). α-TEA decreased the levels of the phosphorylated forms of Akt. […] As verification that the decreases in phosphorylation status of Akt correlated with decreased kinase activity, the phosphorylation status of GSK3β, a downstream Akt target, was evaluated following α-TEA treatments. […] GAPDH levels were assayed with each immunoblot assay as a protein loading control.
Since Akt has three isoforms; namely, Akt1, Akt2, and Akt3, it was of interest to determine if α-TEA treatment was reducing the phosphorylated status of all three isoforms. Following α-TEA treatment the three Akt isoforms were immunoprecipitated with isoform specific antibodies, followed by western immunoblotting analyses using antibody specific for phospho-Akt. The protein levels of the isoforms were also determined. […] Treatment diminished the phosphorylation levels in all three Akt isoforms in both LNCaP and PC-3-GFP cells.
1×10^7 LNCaP or PC-3 3-GFP cells were treated with α-TEA and lysed in RIPA lysis buffer in the presence of protease inhibitors. […] Beads were washed 4 times with PBS and the proteins were released from the beads by boiling in Laemmli buffer for 5 min. Immunoprecipitated proteins were identified by SDS-PAGE followed by western immunoblot analyses.
Since Akt is activated, at least in part, by PI3K, we were interested to see if blockage of PI3K activity using the PI3K inhibitor LY294002 (Calbiochem-Novabiochem Corp. (San Diego, Calif.)) (Vlahos et al., 1994) would augment the apoptotic response induced by α-TEA.

NOXA = NOXA mRNA (RT-PCR) and protein (Western blot) levels; assay type: cell-based, human; details: for peak NOXA mRNA levels, fold higher than VEH control / NOXA protein levels, fold higher than VEH control: 40 μM α-TEA; for NOXA protein levels, fold higher than VEH control: 24 h
Procedure: Whole-cell protein extracts were prepared as described previously (Yu et al., 1999), and 50 μg of protein was loaded per lane, separated using SDS-PAGE on a 10-15% gel under reducing conditions, and electroblotted onto a nitrocellulose membrane ([…] Optitran BA-S-supported nitrocellulose; Schleicher and Schuell, Keene, N.H.). Equal loading was verified using GAPDH antibody. Primary rabbit antibodies with specificity for PARP and primary goat antibody with specificity for Arg were purchased from Santa Cruz Biotechnology (Santa Cruz, Calif.). Horseradish peroxidase conjugated goat anti-rabbit or horseradish goat anti-mouse secondary antibody was purchased from Jackson Immunoresearch Laboratory (West Grove, Pa.). Horseradish peroxidase-conjugated donkey anti-goat serum was purchased from Santa Cruz Biotechnology. Immune complexes were visualized using enhanced chemiluminescence detection (Pierce Chemical Co., Rockford, Ill.). Fold differences in level of chemiluminescence were determined by densitometric analyses.
Total RNA was isolated from cells using RNeasy Protect Mini kit (Qiagen, Valencia, Calif.) according to manufacturer's instruction. Reverse transcription was performed as described above except using 15 μg of total RNA as template. Polymerase chain reaction (PCR) with Arg primers 30 cycles in volumes of 50 μl according to the manufacturer's protocol (Taq PCR Master Mix Kit; Qiagen, Valencia, Calif.). Primers used in the analyses were: Arg, forward (5′-CAGTGATGCCTCCACCTCAA-3′; SEQ ID NO:2) and reverse (5′-TTTCCCTCTCCCCTCAGAAAT-3′; SEQ ID NO:3) and for β-actin (loading control), forward (5′-GGCGGCACCACCATGTACCCT-3′; SEQ ID NO:4) and reverse (5′-AGGGGCCGGACTCGTCATACT-3′; SEQ ID NO:5) (Invitrogen, Carlsbad, Calif.). The amplification reaction involved denaturation at 95° C. for 30 seconds, annealing at 52° C. for 30 seconds, and extension at 72° C. for 30 seconds (for Arg) using a PTC-225 thermal cycler (MJ Research, San Francisco, Calif.). The PCR products were resolved on 1% agarose gels and visualized by ethidium bromide staining.
To confirm the microarray data, semi-quantative RT-PCR and Western blot analyses were carried out to measure the change in mRNA and protein level of NOXA using estrogen nonresponsive MDA-MB-435 and estrogen responsive MCF-7 human breast cancer cells. Assays were preformed as describide above using NOXA specific antibodies (purchased from Santa Cruz Biotechnology (Santa Cruz, Calif.)) and NOXA sepcific PCR primers (forward (5′-CGTGTGTAGTTGGCATCTCC-3′) and reverse (5′-GCCCCAAGTAACCCTCCTAT-3′)). In MCF-7 cells, α-TEA induced NOXA mRNA starting at 3 h, peaking at 15 h (FIG. 9A, left top panel). In MDA-MB-435 cells, α-TEA induced NOXA mRNA starting at 3 h, peaking at 6 h (FIG. 9A, right top panel). In both cell lines, protein levels of NOXA were increased at 15 and 24 h after α-TEA treatments (FIG. 9C, top panel). […] In MCF-7 cells, peak NOXA mRNA levels at 15 h were 1.5-fold higher than the VEH control and NOXA protein levels at 24 h were 7.6-fold higher than the VEH control. Upregulation of NOXA protein levels is correlated with PARP cleavage which is an indicator of cells undergoing apoptosis (Wolf and Green, 1999) (FIG. 9C, second panel). GAPDH levels served to help verify lane loads (FIG. 9C, bottom panel). […] NOXA protein levels were also assessed in other cell lines including MDA-MB-231 and T47D human breast cancer cell lines, immortalized, but nontumorigenic MCF-10A breast epithelial cells as well as human normal mammary epithelial cell line (HMEC) (Table 3). The ability of α-TEA to induce NOXA and induce apoptosis plus the p53 status based on the literature is summarized (Table 3).

In the case of Cc1c(C)c2c(c(C)c1OCC(=O)O)CC[C@@](C)(CCC[C@H](C)CCC[C@H](C)CCCC(C)C)O2 [α-TEA], the “phosphorylation levels of Akt1, Akt2, Akt3 isoforms (immunoprecipitation)” value (Akt; LNCaP and PC-3-GFP cells, 40 μM α-TEA, 24 h) is reported as “markedly reduced”, the “effect on level of Akt protein expression” value (Akt; LNCaP and PC-3-GFP cells, any time point) is reported as “no major effect” and the “inhibition of levels of endogenously phosphorylated Akt” value (Akt; LNCaP cells, 10 μM α-TEA and/or 10 μM LY294002) is reported as 40%. The “reduction of phosphorylated forms of Akt” value (Akt; LNCaP cells, 40 μM α-TEA, 24 h) was 90%, the “inhibition of levels of endogenously phosphorylated Akt” value (Akt; PC-3-GFP cells, 20 μM α-TEA and/or 10 μM LY294002) was 70% and the “reduction of phosphorylated forms of Akt” value (Akt; PC-3-GFP cells, 40 μM α-TEA, 24 h) was 70%. For the same compound, the “Ability of α-TEA to induce NOXA expression” value (“Ability of α-TEA” for short) (NOXA; HMEC) was “No”, the “Ability of α-TEA” value (NOXA; MCF-7) was “Yes” and the “peak NOXA mRNA levels, fold higher than VEH control” value (NOXA; MCF-7 cells, 15 h) was 1.5 fold. For the same compound, the “NOXA protein levels, fold higher than VEH control” value (NOXA; MCF-7 cells) was 7.6 fold, the “Ability of α-TEA” value (NOXA; MCF-10A) was “Yes” and the “Ability of α-TEA” value (NOXA; MDA-MB-231) was “Yes”. The “Ability of α-TEA” value (NOXA; MDA-MB-435) was “Yes”, the “peak NOXA mRNA levels, fold higher than VEH control” value (NOXA; MDA-MB-435 cells, 6 h) was 2.6 fold and the “NOXA protein levels, fold higher than VEH control” value (NOXA; MDA-MB-435 cells) was 16.8 fold. The “Ability of α-TEA” value (NOXA; T47D) was “No”.
